# In US20230151065A1, “MULTI-DISULFIDE-BOND LONG-CHAIN PEPTIDE WITH NEURO[…], PHARMACEUTICAL COMPOSITION AND APPLICATION” (priority 2018, published 2023):
# Where no end group is shown, it is not given here.
# Key:
# [1] = test system: primary fetal rat hippocampal neurons; assay: Growth cones and neurite growth of hippocampal neurons, immunocytochemical staining; type: cell-based; conditions: vs negative control
# Method: (1) Primary culture of fetal rat hippocampal neurons: after a rat pregnant for 17 days was anesthetized, a fetal rat was taken out under sterile conditions; the brain of the fetal rat was taken out on ice; the hippocampus was carefully taken out under a dissecting microscope; and the blood vessel membranes were removed. 0.125% trypsin/EDTA was digested at 37° C. for 10 min, and the digestion was stopped by adding the DMEM complete medium containing 10% FBS. Cell debris were removed through centrifugal at 1000 rpm for 5 min; the DMEM complete medium was added to resuspend the cells; the cells were gently blown until a single cell suspension was formed; and the cells were inoculated at an appropriate density on a culture plate (dish) pre-coated with polylysine (PLL) and cultured at 37° C., 5% CO2 incubator. After 4 h, the cells were adhered to the wall; the DMEM complete medium was discarded and replaced with neurobasal medium containing different concentrations of ABPPk2 (the concentrations of ABPPk2 were 4 ng/ml, 20 ng/ml and 100 ng/ml); the neurobasal medium containing 10 ng/ml BDNF was used as the positive control group, and neurobasal was used as the negative control group.
# (4) The immunocytochemical staining method was used to observe the effect of ABPPk2 on the growth cones of primary fetal rat hippocampal neuron neurites. Primary hippocampal neurons were cultured according to the steps in (1), and the cells were inoculated on small round slides pre-coated with PLL at a density of 5×10^4, and then placed on a 24-well culture plate for culturing. Grouping and treatment were as described above. After 24 h, double-labeled immunocytofluorescent chemical staining of β-tubulin3 (TRITC) and F-actin (FITC) was conducted; the growth of the neurons was observed under a laser confocal microscope; and the area of the neuron growth cone and the length of filopodia were counted, as shown in FIG. 23.
# (5) The immunocytochemical staining method was used to observe the effect of ABPPk2 on the growth of primary fetal rat hippocampal neuron neurites. Primary hippocampal neurons were cultured according to the steps in (1), and the cells were inoculated on small round slides pre-coated with PLL at a density of 5×10^4, and then placed on a 24-well culture plate for culturing. Grouping and treatment were as described above. […] The length of the neurites started from the axon hillock of the cell body to the top of the axon. The number of the neurites from the neuron cell bodies refers to the neurites directly connected with the cell bodies, as shown in FIG. 24.
# (6) β-tubulin3 […]; the growth of the neurites was observed under the laser confocal microscope; the number of neurite branches and the proportion of the neurites with different lengths were counted; and the number of neurite branches refers to the number of branches of the neurites in a circle with a neuron cell body as the center and a radius of 100 μm.
# [2] = test system: primary cultured SD fetal rat cortical neurons after OGD damage; assay: OGD damage of cortical neurons, Western blot of apoptosis-related proteins; type: cell-based
# [3] = ABPPk2 4, 20, 100 ng/ml, 12 h as printed (24 h in method)
# [4] = after OGD damage and treatment with ABPPk2
# [5] = total protein, ABPPk2 medium-dose (40 ng/ml) and high-dose (200 ng/ml) groups vs OGD damage group
substance,measurement,setting,value
"Cys-Leu-Glu-Ser-Gly-Thr-Ser-Cys-Ile-Pro-Gly-Ala-Gln-His-Asn-Cys-Cys-Ser-Gly-Val-Cys-Val-Pro-Ile-Val-Thr-Ile-Phe-Tyr-Gly-Val-Cys-Tyr (CLESGTSCIPGAQHNCCSGVCVPIVTIFYGVCY; disulfide (positions not given here); not fully specified (bridges); also: three disulfide bonds, pairing not given here) [ABPPk2, 33 amino acid polypeptide isolated from the extract of Achyranthes bidentata Blume, three pairs of disulfide bonds]",area of the neuron growth cone,[1]; [3],the area of the growth cone can be significantly increased
same,length of filopodia,[1]; [3],the length of the filopodia can be increased
same,length of the neurites,[1]; ABPPk2 for 24 h,the extension of hippocampal neuronal neurites can be significantly promoted
same,number of the neurites from the neuron cell bodies,[1]; ABPPk2 for 24 h,the number of the neurites from the neuron cell bodies can be significantly increased
same,number of neurite branches,[1]; ABPPk2 for 48 h,increased significantly
same,proportion of long neurite neurons,[1]; ABPPk2 for 48 h,significantly higher than that of the negative control group
same,expression of AIF in mitochondria,[2]; [4],significantly up-regulated
same,expression of AIF in the nucleus,[2]; [4],significantly down-regulated
same,expression of Cyt C in cytoplasma,[2]; [4],significantly down-regulated
same,expression of Cyt C in mitochondria,[2]; [4],significantly up-regulated
same,Bcl-2 expression,"[2]; total protein, ABPPk2 high-dose group (200 ng/ml) vs OGD damage group",significantly up-regulated
same,Bax expression,[2]; [5],significantly down-regulated
same,Cleaved caspase-3 expression,[2]; [5],significantly down-regulated
